Laboratory results as given in patent US20220178944A1, “METHODS FOR IDENTIFYING DIFFERENTIAL HISTONE RETENTION FOR EPIGENETIC ALTERATIONS IN GERMLINE DNA OF ANIMALS” (Washington State University, priority 2020, published 2022).

Assays:
Sprague Dawley rats = assay: Histopathology and disease classification, F3 generation atrazine lineage males; type: in vivo, rat
Procedure: Female and male rats of an outbred strain Hsd:Sprague Dawley SD (Harlan) at 70 to 100 days of age were fed ad lib with a standard rat diet and ad lib tap water. Timed-pregnant females on days 8 through 14 of gestation were administered daily intraperitoneal injections of atrazine (25 mg/kg BW/day dissolved in PBS) (Chem Service, Westchester Pa.) or dimethyl sulfoxide (DMSO) or as previously described. Twenty-five mg/kg for atrazine is 4% of rat oral LD50 and 50% of NOAEL.
The gestating female rats treated were designated as the F0 generation. F1-F3 generation control and atrazine lineages were housed in the same room and racks with lighting, food and water.
Rats were euthanized at 12 months of age by CO2 inhalation and cervical dislocation for tissue harvest. Testis, prostate, ovary, kidney, and gonadal fat pads were fixed in Bouin's solution (Sigma) followed by 70% ethanol, then processed for paraffin embedding and hematoxylin, and eosin (H & E) staining by standard procedures for histopathological examination. Paraffin five micron sections were processed and stained (Nationwide Histology, Spokane Wash., USA).
Full necropsies were performed as required on animals that died prior to the time of scheduled sacrifice at one year and tumor classifications were performed.
Upon dissection a brief examination of abdominal and thoracic organs was performed to look for obvious abnormalities. The tissues evaluated histologically were selected from previous literature showing them to have pathology in transgenerational models, with an emphasis on reproductive organs. Histopathology readers were trained to recognize the specific abnormalities evaluated for this study in rat testis, ventral prostate and kidney (see below). Two different readers initially evaluated the tissues. […] Readers were blinded to the exposure groups. A set of quality control (QC) slides was generated for each tissue and was read by each reader prior to evaluating any set of experimental slides. These QC slide results are monitored for reader accuracy and concordance.
Testis histopathology criteria included the presence of vacuoles in the seminiferous tubules, azoospermic atretic seminiferous tubules, and ‘other’ abnormalities including sloughed spermatogenic cells in the center of the tubule and a lack of a tubule lumen. Prostate histopathology criteria included the presence of vacuoles in the glandular epithelium, atrophic glandular epithelium and hyperplasia of prostatic gland epithelium (FIG. 25). Kidney histopathology criteria included reduced size of glomerulus, thickened Bowman's capsule, and the presence of proteinaceous fluid-filled cysts >50 μm in diameter (FIG. 25). A cut-off was established to declare a tissue ‘diseased’ based on the mean number of histopathological abnormalities plus two standard deviations from the mean of control group tissues, as assessed by each of the individual readers. This number (i.e. greater than two standard deviations) was used to classify rats into those with and without testis, prostate, or kidney disease in the F3 generation lineage. A rat tissue section was finally declared ‘diseased’ only when at least two of the three readers marked the same tissue section ‘diseased’.
Lean phenotype was assessed with a decrease in adipocyte size (area), body mass index (BMI) and abdominal adiposity. BMI was calculated with weight (g)/length (cm)^2 with the length of the animal measured from the nose to the base of the tail. Gonadal fat pad slides were imaged using a Nikon Eclipse E800 microscope (10×) with an AVT Prosilica GE1050C Color GigE camera. Five field of view image captures were taken per slide in varying parts of the fat pad. Adipocyte size was measured converting pixels into microns using Adiposoft. Measurements of the 20 largest cells from each image for a total of 100 were averaged as hypertrophic cells are the most metabolically relevant and susceptible to cell death. […]

[1] = test system: sperm histone H3 retention sites; assay: Sperm differential histone retention regions (DHRs), histone H3 ChIP-Seq, glyphosate versus control lineage; type: in vivo, rat; conditions: F3 generation males; F0 25 mg/kg/day i.p. gestation days 8-14; edgeR p<1e-05
Description: (§1) Outbred Sprague Dawley SD male and female rats were fed a standard diet with water ad lib and mated. […] Female and male rats of an outbred strain Hsd:Sprague Dawley SD (Harlan) at 70 to 100 days of age were fed ad lib with a standard rat diet and ad lib tap water.
(§2) The gestating female rats treated were designated as the F0 generation. Breeding for each generation occurred at 70-90 days and 5 different litters were generated with no cousin or sibling breeding to avoid any inbreeding artifacts. Litters were culled to 10 pups (5 males and 5 females) between days 3-5 of birth to avoid litter effects. […] The F3 generation males were aged to 1 year of age for pathology analysis.
Histone chromatin immunoprecipitation with genomic DNA was performed. Individual rat sperm were collected, and the sperm counts were determined for each individual. A sonication of 10 seconds was performed for each sperm sample to remove any somatic cell contamination using a Sonic Dismembrator Model 300 (Thermo Scientific Fisher, USA) then centrifuged 1800×g for 5 minutes at 4° C. then resuspended and counted individually on a Neubauer counting chamber (Propper manufacturing Co., Inc., New York, USA). The sperm samples were reconstituted up to 1 ml with PBS (phosphate buffered saline). […]

[2] = in vivo; cited from earlier work
[3] = cited from earlier work
sperm DNA methylation = assay: Sperm differential DNA methylation regions (DMRs), MeDIP-Seq, glyphosate versus control lineage; type: in vivo, rat; conditions: F3 generation males, edgeR p<1e-05
Description: as §1, §2
Briefly, the epididymis was dissected free of fat and connective tissue, then, after cutting open the cauda, placed into 6 ml of phosphate buffer saline (PBS) for 20 minutes at room temperature. Further incubation at 4° C. will immobilize the sperm. The tissue was then minced, the released sperm pelleted at 4° C. 3,000×g for 10 min, then resuspended in NIM buffer and stored at −80° C. for further processing.
An appropriate amount of rat sperm suspension was used for DNA extraction. […]
Genomic DNA was sonicated and run on 1.5% agarose gel for fragment size verification. […] DNA concentration was measured in Qubit (Life Technologies) with the ssDNA kit (Molecular Probes Q10212). […]

[4] = Glyphosate metabolism turnover (half-life); type: in vivo; conditions: worked out from 2-4 half-lives per 24-hour period
[5] = F3 generation atrazine lineage males, 1 year of age, # evaluated 55

## CCNc1nc(Cl)nc(NC(C)C)n1 [atrazine]
Sprague Dawley rats; F3 generation atrazine lineage
  prevalence of transgenerational lean pathology in the exposed population: nearly a third of the animals
Sprague Dawley rats; [5]
  # affected, Kidney disease: 8
  # affected, Lean: 15
  # affected, Obese: 4
  # affected, Prostate disease: 4
  # affected, Testis disease: 12
  # affected, Tumor: 1
Sprague Dawley rats; F3 generation atrazine lineage males, # evaluated 55
  # affected, Puberty Late: 10
Sprague Dawley rats; F3 generation atrazine lineage males, F0 25 mg/kg/day i.p. gestation days 8-14, # evaluated 55
  # affected, Puberty Early: 0

## O=C(O)CNCP(=O)(O)O [glyphosate]
[1]
  number of sperm DHRs, glyphosate versus control: 836
[2]
  half-life (metabolism turnover): 5 to 10 h
[3]; direct exposure, mammalian rat model
  No Observational Adverse Effect Level (NOAEL) dose: 50 mg/kg per day
[3]; rat, in vivo
  No Observable Adverse Effect Level (NOAEL) exposure: 50 mg/kg/day
Sperm DNA methylation; F0 25 mg/kg/day i.p. gestation days 8-14
  total number of sperm DMRs, control versus glyphosate (All Window): 340
Sperm DNA methylation
  number of sperm DMRs with multiple neighboring 1000 bp windows, control versus glyphosate: 11
[4]
  daily decrease of concentration during the transient exposure period: 75-90%
